Values after ≈ are worked out from the molar mass of the structure shown. Active and inactive are the calls of the source. No cut-off for these calls is given here. Bridge positions count the residues as written; N and C are the ends. Square brackets hold non-standard residues; d marks the D form. Peptide text beside a SMILES is read from it. * marks the point of attachment. X1 = CC[C@H](C)CCCCC(=O)*; Dab = NCC[C@H](N)C(=O)O
How the values were obtained:
Lipid bilayer [1] = assay: Membrano-lytic effect in mammalian membrane mimic DOPC/cholesterol (10:1) large unilamellar vesicles assessed as calcein leakage measured at 50 microg/ml measured upto 100 mins for every 10 mins by multimode microplate reader assay; type: cell membranes; settings: dose 50.0 µg/ml
Staphylococcus aureus [2] = assay: Antibacterial activity against methicillin resistant Staphylococcus aureus ATCC BAA-1556 after 24 hrs in presence of fetal bovine serum by microtiter plate method; type: functional
Staphylococcus aureus [3] = assay: Antibacterial activity against methicillin resistant Staphylococcus aureus ATCC BAA-1556 after 24 hrs in presence of 2 mM of CaCl2 by microtiter plate method; type: functional
Escherichia coli [4] = assay: Bactericidal activity against Escherichia coli ATCC BAA-2452 assessed as reduction of bacterial growth at MIC by counting formed colonies; type: functional, organism-based; settings: time <= 4.0 hrs, TDE = time-dependent effect
Staphylococcus aureus [5] = assay: Antibacterial activity against methicillin resistant Staphylococcus aureus ATCC BAA-1556 incubated for 24 hrs by microtiter plate method; type: functional; settings: Staphylococcus aureus, ATCC BAA-1556, 24 h, read-out: MIC
Streptococcus pneumoniae [6] = assay: Antibacterial activity against […] ATCC 49619 incubated for 24 hrs by microtiter plate method; type: functional
Staphylococcus aureus [7] = assay: Antibacterial activity against methicillin resistant Staphylococcus aureus ATCC BAA-1556 after 24 hrs in presence of 4.5 mM of KCl by microtiter plate method; type: functional
Lipid bilayer [8] = assay: Membrano-lytic effect in bacterial inner membrane mimic DOPC/DOPG (7:3) large unilamellar vesicles assessed as calcein leakage measured upto 100 mins for every 10 mins by multimode microplate reader assay; type: cell membranes; settings: dose 5-50 µg/ml, DDE = dose-dependent effect
Bacillus subtilis = assay: Antibacterial activity against Bacillus subtilis ATCC 6633 incubated for 24 hrs by microtiter plate method; type: functional
Staphylococcus aureus [9] = assay: Bactericidal activity against methicillin resistant Staphylococcus aureus ATCC BAA-1556 assessed as time required for complete reduction of bacterial growth at 4 times MIC by counting formed colonies; type: functional
Staphylococcus aureus [10] = assay: Antibacterial activity against methicillin resistant Staphylococcus aureus ATCC BAA-1556 after 24 hrs in presence of 1 mM of by microtiter plate method; type: functional
Enterococcus faecalis [11] = assay: Antibacterial activity against Enterococcus faecalis ATCC 29212 incubated for 24 hrs by microtiter plate method; type: functional
Staphylococcus aureus [12] = assay: Bactericidal activity against methicillin resistant Staphylococcus aureus ATCC BAA-1556 assessed as time required for complete reduction of bacterial growth at MIC by counting formed colonies; type: functional
Escherichia coli [13] = assay: Bactericidal activity against Escherichia coli ATCC BAA-2452 assessed as reduction of bacterial growth at 4 times MIC by counting formed colonies; type: functional, organism-based; settings: time <= 4.0 hrs, TDE = time-dependent effect
Staphylococcus aureus [14] = assay: Antibacterial activity against methicillin resistant Staphylococcus aureus ATCC BAA-1556 incubated for 24 hrs; type: functional
Streptococcus pneumoniae [15] = assay: Antibacterial activity against multidrug resistant […] ATCC 700677 incubated for 24 hrs by microtiter plate method; type: functional
Enterococcus faecalis [16] = assay: Antibacterial activity against vancomycin-resistant Enterococcus faecalis ATCC 51575 incubated for 24 hrs by microtiter plate method; type: functional
Enterococcus faecium [17] = assay: Antibacterial activity against Enterococcus faecium ATCC 27270 incubated for 24 hrs by microtiter plate method; type: functional
Enterococcus faecium [18] = assay: Antibacterial activity against vancomycin-resistant Enterococcus faecium ATCC 700221 incubated for 24 hrs by microtiter plate method; type: functional
Bacillus cereus = assay: Antibacterial activity against Bacillus cereus ATCC 13061 incubated for 24 hrs by microtiter plate method; type: functional
Staphylococcus aureus [19] = assay: Antibacterial activity against methicillin resistant Staphylococcus aureus ATCC BAA-1556 after 24 hrs in presence of 150 mM of NaCl by microtiter plate method; type: functional
Staphylococcus aureus [20] = assay: Antibacterial activity against Staphylococcus aureus ATCC 29213 incubated for 24 hrs by microtiter plate method; type: functional; settings: Staphylococcus aureus, ATCC 29213, read-out: MIC
Staphylococcus aureus [21] = assay: Antibacterial activity against methicillin resistant Staphylococcus aureus ATCC BAA-1556 after 24 hrs in presence of 6 mM of NH4Cl by microtiter plate method; type: functional
Lipid bilayer [22] = assay: Membrano-lytic effect in bacterial inner membrane mimic DOPC/DOPG (7:3) large unilamellar vesicles assessed as calcein leakage measured at 50 microg/ml, incubated for 100 mins by multimode microplate reader assay; type: cell membranes; settings: dose 50.0 µg/ml
Staphylococcus aureus [23] = assay: Bactericidal activity against methicillin resistant Staphylococcus aureus ATCC BAA-1556 assessed as reduction of bacterial growth at 4 times MIC by counting formed colonies; type: functional, organism-based; settings: time <= 4.0 hrs, TDE = time-dependent effect
Staphylococcus aureus [24] = assay: Bactericidal activity against methicillin resistant Staphylococcus aureus ATCC BAA-1556 assessed as reduction of bacterial growth at MIC by counting formed colonies; type: functional, organism-based; settings: time <= 4.0 hrs, TDE = time-dependent effect
Escherichia coli [25] = assay: Antibacterial activity against Escherichia coli ATCC 25922 after 24 hrs in presence of 4.5 mM of KCl at by microtiter plate method; type: functional
Escherichia coli [26] = assay: Antibacterial activity against Escherichia coli ATCC 25922 after 24 hrs in presence of fetal bovine serum by microtiter plate method; type: functional
Pseudomonas aeruginosa [27] = assay: Antibacterial activity against Pseudomonas aeruginosa ATCC 10145 incubated for 24 hrs by microtiter plate method; type: functional
Escherichia coli [28] = assay: Antibacterial activity against Escherichia coli ATCC 25922 after 24 hrs in presence of 2 mM CaCl2 at by microtiter plate method; type: functional
Escherichia coli [29] = assay: Antibacterial activity against Escherichia coli ATCC 25922 assessed as reduction in microbial growth after 24 hrs in presence of 6 mM of NH4Cl at by microtiter plate method; type: functional
Acinetobacter baumannii = assay: Antibacterial activity against ciprofloxacin resistance Acinetobacter baumannii ATCC BAA1605 incubated for 24 hrs by microtiter plate method; type: functional
Escherichia coli [30] = assay: Antibacterial activity against Escherichia coli ATCC 25922 incubated for 24 hrs by microtiter plate method; type: functional; settings: Escherichia coli, ATCC 25922, read-out: MIC
Pseudomonas aeruginosa [31] = assay: Antibacterial activity against Pseudomonas aeruginosa ATCC 27883 incubated for 24 hrs by microtiter plate method; type: functional; settings: Pseudomonas aeruginosa, ATCC 27883, read-out: MIC
Pseudomonas aeruginosa [32] = assay: Antibacterial activity against imipenem resistant Pseudomonas aeruginosa ATCC BAA-1744 incubated for 24 hrs by microtiter plate method; type: functional
Escherichia coli [33] = assay: Antibacterial activity against Escherichia coli ATCC 25922 incubated for 24 hrs; type: functional
Escherichia coli [34] = assay: Antibacterial activity against Escherichia coli NDM-1-resistant ATCC BAA-2452 incubated for 24 hrs by microtiter plate method; type: functional
Escherichia coli [35] = assay: Antibacterial activity against Escherichia coli ATCC 25922 after 24 hrs in presence of 150 mM NaCl by microtiter plate method; type: functional
Klebsiella pneumoniae [36] = assay: Antibacterial activity against Klebsiella pneumoniae ATCC 13883 […] incubated for 24 hrs by microtiter plate method; type: functional
Escherichia coli [37] = assay: Antibacterial activity against Escherichia coli ATCC 25922 after 24 hrs in presence of 1 mM of MgCl2 at by microtiter plate method; type: functional
Klebsiella pneumoniae [38] = assay: Antibacterial activity against carbapenem-resistant Klebsiella pneumoniae ATCC BAA-2470 incubated for 24 hrs by microtiter plate method; type: functional

CCCCCCCCCC(=O)N[C@@H](Cc1c[nH]c2ccccc12)C(=O)N[C@H](CC(N)=O)C(=O)N[C@@H](CC(=O)O)C(=O)N[C@@H]1C(=O)NCC(=O)N[C@@H](CCCN)C(=O)N[C@@H](CC(=O)O)C(=O)N[C@H](C)C(=O)N[C@@H](CC(=O)O)C(=O)NCC(=O)N[C@H](CO)C(=O)N[C@@H]([C@H](C)CC(=O)O)C(=O)N[C@@H](CC(=O)c2ccccc2N)C(=O)O[C@@H]1C showed an Activity (Lipid bilayer [1]) of 5%, an MIC (Staphylococcus aureus [2]) of 3.1 µg/mL and an MIC (Staphylococcus aureus [3]) of 3.1 µg/mL. The Activity (Escherichia coli [4]) was “Tde”, the MIC (Staphylococcus aureus [5]) was 1.5 µg/mL (≈ 0.926 µM) and the MIC (Streptococcus pneumoniae [6]) was 12.5 µg/mL (≈ 7.71 µM). The MIC (Staphylococcus aureus [7]) was 1.5 µg/mL, the Activity (Lipid bilayer [8]) was “Dde” and the MIC (Bacillus subtilis) was 0.7 µg/mL (≈ 0.432 µM). For the same molecule, the Activity (Staphylococcus aureus [9]) was “Active”, the MIC (Staphylococcus aureus [10]) was 3.1 µg/mL and the MIC (Enterococcus faecalis [11]) was 6.25 µg/mL (≈ 3.86 µM). For the same molecule, the Activity (Staphylococcus aureus [12]) was “Active”, the Activity (Escherichia coli [13]) was “Tde” and the MBC (Staphylococcus aureus [14]) was 6.2 µg/mL (≈ 3.83 µM). For the same molecule, the MIC (Streptococcus pneumoniae [15]) was 12.5 µg/mL (≈ 7.71 µM), the MIC (Enterococcus faecalis [16]) was 12.5 µg/mL (≈ 7.71 µM) and the MIC (Enterococcus faecium [17]) was 1.5 µg/mL (≈ 0.926 µM). It also gave an MIC (Enterococcus faecium [18]) of 6.25 µg/mL (≈ 3.86 µM), an MIC (Bacillus cereus) of 1.5 µg/mL (≈ 0.926 µM) and an MIC (Staphylococcus aureus [19]) of 0.7 µg/mL. The MIC (Staphylococcus aureus [20]) was 0.7 µg/mL (≈ 0.432 µM), the MIC (Staphylococcus aureus [21]) was 1.5 µg/mL and the Activity (Lipid bilayer [22]) was 27%. For the same molecule, the Activity (Staphylococcus aureus [23]) was “Tde” and the Activity (Staphylococcus aureus [24]) was “Tde”.

In the case of CC[C@H](C)CCCCC(=O)N[C@@H](CCN)C(=O)N[C@H](C(=O)N[C@@H](CCN)C(=O)N[C@H]1CCNC(=O)[C@H]([C@@H](C)O)NC(=O)[C@H](CCN)NC(=O)[C@H](CCN)NC(=O)[C@H](CC(C)C)NC(=O)[C@@H](Cc2ccccc2)NC(=O)[C@H](CCN)NC1=O)[C@@H](C)O (X1-[Dab]T[Dab][Dab][Dab][dF]L[Dab][Dab]T; lactam 4-C), the MIC (Escherichia coli [25]) is reported as 0.7 µg/mL, the Activity (Escherichia coli [4]) is reported as “Tde” and the MIC (Escherichia coli [26]) is reported as 3.1 µg/mL. The MIC (Pseudomonas aeruginosa [27]) was 0.7 µg/mL (≈ 0.582 µM), the MIC (Escherichia coli [28]) was 0.7 µg/mL and the MIC (Escherichia coli [29]) was 0.7 µg/mL. For the same molecule, the Activity (Staphylococcus aureus [9]) was “Active”, the MIC (Acinetobacter baumannii) was 0.7 µg/mL (≈ 0.582 µM) and the Activity (Staphylococcus aureus [12]) was “Active”. For the same molecule, the Activity (Escherichia coli [13]) was “Tde”, the MIC (Escherichia coli [30]) was 0.7 µg/mL (≈ 0.582 µM) and the MIC (Pseudomonas aeruginosa [31]) was 0.7 µg/mL (≈ 0.582 µM). The MIC (Pseudomonas aeruginosa [32]) was 0.7 µg/mL (≈ 0.582 µM), the MBC (Escherichia coli [33]) was 3.1 µg/mL (≈ 2.58 µM) and the MIC (Escherichia coli [34]) was 0.7 µg/mL (≈ 0.582 µM). For the same molecule, the MIC (Escherichia coli [35]) was 0.7 µg/mL, the MIC (Staphylococcus aureus [20]) was 0.7 µg/mL (≈ 0.582 µM) and the MIC (Klebsiella pneumoniae [36]) was 6.2 µg/mL (≈ 5.15 µM). The MIC (Escherichia coli [37]) was 1.5 µg/mL, the Activity (Staphylococcus aureus [23]) was “Tde” and the Activity (Staphylococcus aureus [24]) was “Tde”. It also gave an MIC (Klebsiella pneumoniae [38]) of 1.5 µg/mL (≈ 1.25 µM).

From ChEMBL document CHEMBL5154681, “Small Amphiphilic Peptides: Activity Against a Broad Range of Drug-Resistant Bacteria and Structural Insight into Membranolytic Properties” (J Med Chem, 2022)
